Values after ≈ are worked out from the molar mass of the structure shown.
Assays:
[1] = Cytotoxicity against MDCK cells assessed as cell viability after 72 hrs by MTT assay; format: cell-based, Canis lupus familiaris; conditions: dog
[2] = Cytotoxicity against human A549 cells assessed as cell viability after 72 hrs by MTT assay; format: cell-based
Influenza A virus = assay: microbe, parasite or virus in culture; conditions: A/Puerto Rico/8/1934(H1N1), MDCK, 48 h
[3] = target: Neuraminidase (Influenza A virus (A/Puerto Rico/8/1934(H1N1))) (UniProt P03468); assay: Inhibition of inactivated Influenza A virus (A/Puerto Rico/8/1934(H1N1)) neuraminidase using MUNANA as substrate at 100 ug/mL incubated for 60 mins prior to substrate addition measured after 45 mins by fluorescence assay relative to control
Chain of Neuraminidase (Influenza A virus (A/Puerto Rico/8/1934(H1N1))) (P03468 whole entry): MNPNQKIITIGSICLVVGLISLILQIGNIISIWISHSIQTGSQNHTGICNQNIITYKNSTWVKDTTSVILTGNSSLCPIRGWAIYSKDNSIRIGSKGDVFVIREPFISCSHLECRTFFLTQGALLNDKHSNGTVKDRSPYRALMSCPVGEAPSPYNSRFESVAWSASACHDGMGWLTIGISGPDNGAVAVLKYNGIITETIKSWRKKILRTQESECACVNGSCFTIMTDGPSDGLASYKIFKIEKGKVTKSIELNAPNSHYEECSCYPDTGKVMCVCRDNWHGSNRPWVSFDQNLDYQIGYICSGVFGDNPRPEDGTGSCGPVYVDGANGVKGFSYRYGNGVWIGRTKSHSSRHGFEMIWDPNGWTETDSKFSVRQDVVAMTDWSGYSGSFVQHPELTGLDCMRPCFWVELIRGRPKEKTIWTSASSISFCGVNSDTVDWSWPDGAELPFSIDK

[4] = target: Neuraminidase (Influenza A virus (A/Puerto Rico/8/1934(H1N1))) (UniProt P03468); assay: (§1) Inhibition of inactivated Influenza A virus (A/Puerto Rico/8/1934(H1N1)) neuraminidase using MUNANA as substrate incubated for 60 mins prior to substrate addition measured after 45 mins by fluorescence assay
[5] = target: Neuraminidase (Influenza A virus (A/Puerto Rico/8/1934(H1N1)), UniProt P03468); assay: as §1
Chain of Neuraminidase (Influenza A virus (A/Puerto Rico/8/1934(H1N1)), UniProt P03468) (P03468 whole entry): as above

**Q.** With `O=C1O/C(=C\c2ccc(O)cc2)C(O)=C1c1ccc(O)cc1` [ASPULVINONE E] as the compound, how does the CC50 at 72 h [1] read?
**A.** > 250 µg/mL

**Q.** And the CC50 at 72 h [2]?
**A.** > 250 µg/mL

**Q.** What about the IC50 (Influenza A virus) of the same compound?
**A.** 56.9 µg/mL (≈ 192 µM)

**Q.** With `CC(=O)N[C@H]1[C@H]([C@H](O)[C@H](O)CO)OC(C(=O)O)=C[C@@H]1NC(=N)N` [ZANAMIVIR] as the compound, how does the IC50 (Influenza A virus) read?
**A.** 0.0284 µg/mL (≈ 0.0855 µM)

**Q.** With `O=C1O/C(=C/c2ccc(O)cc2)C(O)=C1c1ccc(O)cc1` [ISOASPULVINONE E] as the compound, how does the CC50 at 72 h [1] read?
**A.** > 250 µg/mL

**Q.** And the inhibition [3]?
**A.** 60%

**Q.** And the CC50 at 72 h [2]?
**A.** > 250 µg/mL

**Q.** What about the IC50 (Influenza A virus) of the same compound?
**A.** 32.3 µg/mL (≈ 109 µM)

**Q.** What about the inhibition [4] of the same compound?
**A.** Dose-dependent effect

**Q.** What about the IC50 [5] of the same compound?
**A.** 210 µM

**Q.** With `O=C1O/C(=C(/C(=O)O)c2ccccc2)C(O)=C1c1ccccc1` [PULVIC ACID] as the compound, how does the CC50 at 72 h [1] read?
**A.** > 250 µg/mL

**Q.** And the CC50 at 72 h [2]?
**A.** > 250 µg/mL

**Q.** And the IC50 (Influenza A virus)?
**A.** 29.1 µg/mL (≈ 94.4 µM)

Reference: ChEMBL document CHEMBL2331164, “Aspulvinones from a mangrove rhizosphere soil-derived fungus Aspergillus terreus Gwq-48 with anti-influenza A viral (H1N1) activity” (Bioorg Med Chem Lett, 2013)
